From ChEMBL document CHEMBL5212743, “Selectivity Literature for EUbOPEN Chemogenomics Library wave 3” (2023)
pKd, pKi: −log10 of the molar value.

Key:
[1] = target: Sodium-dependent dopamine transporter (Homo sapiens, UniProt Q01959); assay: Selectivity interaction (GPCR panel (PDSP screen)) EUB0000717a SLC6A3
[2] = target: BMP-2-inducible protein kinase (Homo sapiens) (UniProt Q9NSY1); assay: Selectivity interaction (KinomeScan (DiscoverX)) EUB0000717a BMP2K; conditions: at 1 µM
[3] = target: T1, Cyclin-G-associated kinase (Homo sapiens) (UniProt O14976); assay: Selectivity interaction (KinomeScan (DiscoverX)) EUB0000717a GAK; conditions: at 1 µM
T1 sequence (whole entry): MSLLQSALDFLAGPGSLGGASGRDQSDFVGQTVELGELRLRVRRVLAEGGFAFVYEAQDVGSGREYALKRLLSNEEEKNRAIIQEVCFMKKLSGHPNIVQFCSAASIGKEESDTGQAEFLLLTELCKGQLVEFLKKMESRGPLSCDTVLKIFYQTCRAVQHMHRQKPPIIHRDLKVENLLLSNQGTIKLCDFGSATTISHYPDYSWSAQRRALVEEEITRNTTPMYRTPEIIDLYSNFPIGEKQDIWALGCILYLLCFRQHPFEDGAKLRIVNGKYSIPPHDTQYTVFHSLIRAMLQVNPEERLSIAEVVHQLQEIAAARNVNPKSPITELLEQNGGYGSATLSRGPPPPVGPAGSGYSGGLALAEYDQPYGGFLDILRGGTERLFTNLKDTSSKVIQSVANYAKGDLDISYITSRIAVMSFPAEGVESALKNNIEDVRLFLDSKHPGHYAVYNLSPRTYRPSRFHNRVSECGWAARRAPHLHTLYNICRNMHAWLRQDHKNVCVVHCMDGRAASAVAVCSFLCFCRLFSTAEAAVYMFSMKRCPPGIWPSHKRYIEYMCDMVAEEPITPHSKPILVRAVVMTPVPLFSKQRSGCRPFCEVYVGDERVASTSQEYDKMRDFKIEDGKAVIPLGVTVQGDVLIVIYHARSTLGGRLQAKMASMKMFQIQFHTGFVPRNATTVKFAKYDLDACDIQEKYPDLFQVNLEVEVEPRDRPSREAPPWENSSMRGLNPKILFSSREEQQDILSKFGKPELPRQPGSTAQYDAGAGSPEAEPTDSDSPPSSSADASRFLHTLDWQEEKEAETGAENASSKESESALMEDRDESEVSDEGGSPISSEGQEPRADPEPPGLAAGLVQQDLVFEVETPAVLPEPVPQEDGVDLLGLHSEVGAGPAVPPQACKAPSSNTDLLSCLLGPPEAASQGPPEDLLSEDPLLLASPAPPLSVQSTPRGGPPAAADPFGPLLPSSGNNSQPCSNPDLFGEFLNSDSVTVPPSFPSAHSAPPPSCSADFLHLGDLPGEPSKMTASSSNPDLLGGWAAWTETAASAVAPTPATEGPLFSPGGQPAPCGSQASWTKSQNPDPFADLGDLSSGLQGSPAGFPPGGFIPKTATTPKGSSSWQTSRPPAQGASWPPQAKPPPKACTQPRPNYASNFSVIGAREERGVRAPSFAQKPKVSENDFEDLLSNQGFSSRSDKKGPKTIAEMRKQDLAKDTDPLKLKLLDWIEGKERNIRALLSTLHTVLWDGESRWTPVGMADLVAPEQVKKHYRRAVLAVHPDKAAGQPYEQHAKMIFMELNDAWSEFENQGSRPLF

[4] = target: Dual specificity tyrosine-phosphorylation-regulated kinase 1B (Homo sapiens, UniProt Q9Y463); assay: Selectivity interaction (NanoBRET assay (HEK293T cells)) EUB0000009b DYRK1B
[5] = target: Dual specificity protein kinase CLK2 (Homo sapiens, UniProt P49760); assay: Selectivity interaction (NanoBRET assay (HEK293T cells)) EUB0000009b CLK2
[6] = target: Dual specificity tyrosine-phosphorylation-regulated kinase 2 (Homo sapiens, UniProt Q92630); assay: Selectivity interaction (NanoBRET assay (HEK293T cells)) EUB0000009b DYRK2
[7] = target: Dual specificity tyrosine-phosphorylation-regulated kinase 1A (Homo sapiens, UniProt Q13627); assay: Selectivity interaction (NanoBRET assay (HEK293T cells)) EUB0000009b DYRK1A
[8] = target: Histone acetyltransferase p300 (Homo sapiens) (UniProt Q09472); assay: Selectivity interaction (DSF assay) EUB0000195c EP300
[9] = target: Bromodomain-containing protein 2 (Homo sapiens) (UniProt P25440); assay: Selectivity interaction (Bromodomain panel (DSF assay)) EUB0000195c BRD2
[10] = target: T2, Bromodomain-containing protein 4 (Homo sapiens, UniProt O60885); assay: (§1) Selectivity interaction (Bromodomain panel (DSF assay)) EUB0000195c BRD4
[11] = target: Bromodomain-containing protein 3 (Homo sapiens) (UniProt Q15059); assay: Selectivity interaction (Bromodomain panel (DSF assay)) EUB0000195c BRD3
[12] = target: T3, Muscarinic acetylcholine receptor M2 (Homo sapiens) (UniProt P08172); assay: Selectivity interaction (CEREP panel (nuclear receptors, ion channels, and […] other enzymes, including 10 kinases, 9 proteases, and 5 phosphodiesterases)) EUB0000195c CHRM2; conditions: at 10 µM
T3 sequence (whole entry): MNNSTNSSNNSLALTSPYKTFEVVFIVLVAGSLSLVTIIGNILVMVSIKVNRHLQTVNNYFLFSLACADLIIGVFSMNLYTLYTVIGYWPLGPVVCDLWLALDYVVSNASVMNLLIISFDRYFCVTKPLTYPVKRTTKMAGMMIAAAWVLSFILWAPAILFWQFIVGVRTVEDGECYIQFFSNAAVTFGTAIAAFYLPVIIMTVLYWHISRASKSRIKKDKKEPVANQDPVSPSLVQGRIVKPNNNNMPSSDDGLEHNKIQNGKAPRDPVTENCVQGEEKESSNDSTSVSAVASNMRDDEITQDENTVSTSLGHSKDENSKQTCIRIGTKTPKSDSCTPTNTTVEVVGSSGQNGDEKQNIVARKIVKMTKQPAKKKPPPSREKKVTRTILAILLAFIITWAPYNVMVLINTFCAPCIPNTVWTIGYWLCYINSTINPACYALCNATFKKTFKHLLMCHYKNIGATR

CREB-binding protein [13] = target: T4, CREB-binding protein (Homo sapiens, UniProt Q92793)
CREB-binding protein [14] = target: T4, CREB-binding protein; remark: listed apart in the source
Target sequence in this assay (Q92793 whole entry): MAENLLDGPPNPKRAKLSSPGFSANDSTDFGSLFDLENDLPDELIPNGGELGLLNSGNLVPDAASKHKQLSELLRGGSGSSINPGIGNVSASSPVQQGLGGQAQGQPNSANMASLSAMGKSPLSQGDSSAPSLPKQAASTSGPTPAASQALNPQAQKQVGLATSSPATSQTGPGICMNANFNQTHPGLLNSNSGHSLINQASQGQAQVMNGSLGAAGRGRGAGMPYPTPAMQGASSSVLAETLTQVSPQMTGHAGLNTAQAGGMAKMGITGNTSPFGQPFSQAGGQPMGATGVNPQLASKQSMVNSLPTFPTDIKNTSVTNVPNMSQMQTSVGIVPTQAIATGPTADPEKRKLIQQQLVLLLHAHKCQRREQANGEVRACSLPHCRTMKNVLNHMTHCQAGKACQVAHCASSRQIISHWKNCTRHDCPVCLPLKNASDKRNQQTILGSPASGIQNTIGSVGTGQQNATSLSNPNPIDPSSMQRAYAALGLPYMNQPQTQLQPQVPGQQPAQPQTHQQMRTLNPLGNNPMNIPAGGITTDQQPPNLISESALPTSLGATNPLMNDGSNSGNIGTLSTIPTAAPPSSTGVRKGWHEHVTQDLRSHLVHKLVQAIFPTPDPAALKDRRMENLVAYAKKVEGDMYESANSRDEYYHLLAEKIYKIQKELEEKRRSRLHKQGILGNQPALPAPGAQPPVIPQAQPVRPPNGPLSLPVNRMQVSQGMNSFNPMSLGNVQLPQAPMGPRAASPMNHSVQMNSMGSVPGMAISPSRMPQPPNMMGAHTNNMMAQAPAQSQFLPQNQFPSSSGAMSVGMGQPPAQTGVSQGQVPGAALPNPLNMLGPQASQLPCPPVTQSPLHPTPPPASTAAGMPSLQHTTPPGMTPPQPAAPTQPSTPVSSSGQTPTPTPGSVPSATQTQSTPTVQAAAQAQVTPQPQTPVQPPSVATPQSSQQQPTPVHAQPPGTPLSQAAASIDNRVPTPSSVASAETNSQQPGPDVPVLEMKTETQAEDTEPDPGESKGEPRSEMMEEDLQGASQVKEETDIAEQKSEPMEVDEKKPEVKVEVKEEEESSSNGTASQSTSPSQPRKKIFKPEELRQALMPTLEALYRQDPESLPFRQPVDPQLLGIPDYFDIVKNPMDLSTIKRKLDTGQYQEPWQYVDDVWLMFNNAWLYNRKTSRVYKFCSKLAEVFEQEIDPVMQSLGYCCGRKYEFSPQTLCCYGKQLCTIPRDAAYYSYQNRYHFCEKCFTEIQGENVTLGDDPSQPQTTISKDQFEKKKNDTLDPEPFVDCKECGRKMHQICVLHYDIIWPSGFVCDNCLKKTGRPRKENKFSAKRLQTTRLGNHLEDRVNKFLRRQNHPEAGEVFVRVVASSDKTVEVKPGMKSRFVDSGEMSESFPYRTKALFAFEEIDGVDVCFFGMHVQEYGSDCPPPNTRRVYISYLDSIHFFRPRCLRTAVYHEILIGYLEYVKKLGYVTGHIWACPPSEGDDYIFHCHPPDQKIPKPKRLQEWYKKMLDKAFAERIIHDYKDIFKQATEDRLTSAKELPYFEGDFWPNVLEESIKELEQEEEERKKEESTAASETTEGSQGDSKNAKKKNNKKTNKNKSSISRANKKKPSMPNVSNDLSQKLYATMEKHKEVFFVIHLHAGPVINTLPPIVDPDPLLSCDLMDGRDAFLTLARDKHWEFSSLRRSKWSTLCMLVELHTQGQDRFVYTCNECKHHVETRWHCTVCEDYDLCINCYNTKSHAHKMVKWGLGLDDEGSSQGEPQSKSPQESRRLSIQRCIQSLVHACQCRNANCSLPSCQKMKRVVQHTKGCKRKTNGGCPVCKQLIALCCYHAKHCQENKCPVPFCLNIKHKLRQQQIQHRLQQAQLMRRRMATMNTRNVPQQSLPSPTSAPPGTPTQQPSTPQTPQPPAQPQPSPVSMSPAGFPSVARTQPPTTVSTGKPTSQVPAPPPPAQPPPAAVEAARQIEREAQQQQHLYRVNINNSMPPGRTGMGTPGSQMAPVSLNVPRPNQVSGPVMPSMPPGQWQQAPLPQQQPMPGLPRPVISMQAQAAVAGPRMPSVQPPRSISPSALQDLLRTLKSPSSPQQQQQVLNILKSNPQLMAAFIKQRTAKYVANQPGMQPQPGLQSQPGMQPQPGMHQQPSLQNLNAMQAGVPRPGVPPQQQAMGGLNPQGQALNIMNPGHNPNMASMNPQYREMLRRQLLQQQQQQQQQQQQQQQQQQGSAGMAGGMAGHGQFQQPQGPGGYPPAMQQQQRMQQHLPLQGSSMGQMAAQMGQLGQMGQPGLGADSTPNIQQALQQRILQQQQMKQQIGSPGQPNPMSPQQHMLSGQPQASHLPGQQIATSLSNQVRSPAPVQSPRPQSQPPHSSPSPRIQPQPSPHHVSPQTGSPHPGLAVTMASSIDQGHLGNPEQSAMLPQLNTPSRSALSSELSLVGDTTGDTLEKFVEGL

[15] = target: T2, Bromodomain-containing protein 4; assay: as §1; remark: listed apart in the source
[16] = target: T2, Bromodomain-containing protein 4; assay: Selectivity interaction (ITC) EUB0000195c BRD4
[17] = target: T5, Alpha-1A adrenergic receptor (Homo sapiens) (UniProt P35348); assay: Selectivity interaction (CEREP panel (nuclear receptors, ion channels, and […] other enzymes, including 10 kinases, 9 proteases, and 5 phosphodiesterases)) EUB0000195c ADRA1A; conditions: at 10 µM
T5 sequence (whole entry): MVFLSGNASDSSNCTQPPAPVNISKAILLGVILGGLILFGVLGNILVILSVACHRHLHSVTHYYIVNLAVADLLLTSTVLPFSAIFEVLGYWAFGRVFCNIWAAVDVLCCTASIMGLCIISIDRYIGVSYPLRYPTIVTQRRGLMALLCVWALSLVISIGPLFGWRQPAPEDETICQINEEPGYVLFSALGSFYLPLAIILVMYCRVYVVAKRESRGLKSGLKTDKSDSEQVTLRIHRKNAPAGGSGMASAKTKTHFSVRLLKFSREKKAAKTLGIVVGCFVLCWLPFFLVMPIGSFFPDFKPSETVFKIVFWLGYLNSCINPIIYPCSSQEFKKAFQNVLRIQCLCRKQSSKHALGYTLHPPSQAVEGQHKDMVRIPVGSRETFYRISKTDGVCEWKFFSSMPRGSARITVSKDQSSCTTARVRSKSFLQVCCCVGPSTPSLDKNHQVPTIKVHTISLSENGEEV

Activated CDC42 kinase 1 = Activated CDC42 kinase 1 (Homo sapiens, UniProt Q07912); assay: Selectivity interaction (Z’-LYTE assay (SelectScreen Invitrogen)) EUB0000690a TNK2
Focal adhesion kinase 1 = Focal adhesion kinase 1 (Homo sapiens, UniProt Q05397); assay: Selectivity interaction (Z’-LYTE assay (SelectScreen Invitrogen)) EUB0000690a PTK2
[18] = target: Tyrosine-protein kinase Fes/Fps (Homo sapiens, UniProt P07332); assay: Selectivity interaction (Z’-LYTE assay (SelectScreen Invitrogen)) EUB0000690a FES
[19] = target: Tyrosine-protein kinase FRK (Homo sapiens, UniProt P42685); assay: Selectivity interaction (Z’-LYTE assay (SelectScreen Invitrogen)) EUB0000690a FRK
[20] = target: Tyrosine-protein kinase JAK2 (Homo sapiens, UniProt O60674); assay: Selectivity interaction (Z’-LYTE assay (SelectScreen Invitrogen)) EUB0000690a JAK2
[21] = target: Epidermal growth factor receptor (Homo sapiens, UniProt P00533, T790M); assay: (§2) Selectivity interaction (Z’-LYTE assay (SelectScreen Invitrogen)) EUB0000690a EGFR
[22] = target: Epidermal growth factor receptor (Homo sapiens, UniProt P00533, L858R); assay: as §2
[23] = target: High affinity nerve growth factor receptor (Homo sapiens, UniProt P04629); assay: Selectivity interaction (Z’-LYTE assay (SelectScreen Invitrogen)) EUB0000690a NTRK1
[24] = target: NT-3 growth factor receptor (Homo sapiens, UniProt Q16288); assay: Selectivity interaction (Z’-LYTE assay (SelectScreen Invitrogen)) EUB0000690a NTRK3
[25] = target: Leukocyte tyrosine kinase receptor (Homo sapiens, UniProt P29376); assay: Selectivity interaction (Z’-LYTE assay (SelectScreen Invitrogen)) EUB0000690a LTK
[26] = target: Protein-tyrosine kinase 2-beta (Homo sapiens, UniProt Q14289); assay: Selectivity interaction (Z’-LYTE assay (SelectScreen Invitrogen)) EUB0000690a PTK2B
[27] = target: Tyrosine-protein kinase Fer (Homo sapiens, UniProt P16591); assay: Selectivity interaction (Z’-LYTE assay (SelectScreen Invitrogen)) EUB0000690a FER
[28] = target: Sodium-dependent noradrenaline transporter (Homo sapiens, UniProt P23975); conditions: at 10 µM
[29] = target: T2, Bromodomain-containing protein 4; assay: Selectivity interaction (ITC) EUB0000205c BRD4
[30] = target: Kappa-type opioid receptor (Homo sapiens, UniProt P41145); conditions: at 10 µM
[31] = target: T6, Adenosine receptor A1 (Homo sapiens) (UniProt P30542); conditions: at 10 µM
T6 sequence (whole entry): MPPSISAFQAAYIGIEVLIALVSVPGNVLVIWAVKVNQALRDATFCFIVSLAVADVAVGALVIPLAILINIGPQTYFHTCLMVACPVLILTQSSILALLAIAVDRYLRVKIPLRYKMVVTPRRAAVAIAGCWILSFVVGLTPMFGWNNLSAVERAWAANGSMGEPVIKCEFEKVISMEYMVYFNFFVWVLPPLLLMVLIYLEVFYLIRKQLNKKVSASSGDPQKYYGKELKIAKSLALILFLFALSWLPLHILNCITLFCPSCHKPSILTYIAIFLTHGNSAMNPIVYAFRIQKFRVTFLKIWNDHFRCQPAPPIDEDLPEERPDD

[32] = target: Sigma non-opioid intracellular receptor 1 (Homo sapiens, UniProt Q99720); assay: Selectivity interaction (GPCR panel (PDSP screen)) EUB0000103c SIGMAR1
[33] = target: Protein arginine N-methyltransferase 6 (Homo sapiens, UniProt Q96LA8)
[34] = target: RNA 5'-monophosphate methyltransferase (Homo sapiens) (UniProt Q7Z5W3); conditions: at 50 µM
[35] = target: Sodium channel protein type 2 subunit alpha (Homo sapiens, UniProt Q99250); conditions: at 10 µM
[36] = target: Sigma intracellular receptor 2 (Homo sapiens, UniProt Q5BJF2); assay: Selectivity interaction (GPCR panel (PDSP screen)) EUB0000103c TMEM97
[37] = target: Histone-arginine methyltransferase CARM1 (Homo sapiens) (UniProt Q86X55)

Sequence of Sodium-dependent dopamine transporter (Q01959 whole entry): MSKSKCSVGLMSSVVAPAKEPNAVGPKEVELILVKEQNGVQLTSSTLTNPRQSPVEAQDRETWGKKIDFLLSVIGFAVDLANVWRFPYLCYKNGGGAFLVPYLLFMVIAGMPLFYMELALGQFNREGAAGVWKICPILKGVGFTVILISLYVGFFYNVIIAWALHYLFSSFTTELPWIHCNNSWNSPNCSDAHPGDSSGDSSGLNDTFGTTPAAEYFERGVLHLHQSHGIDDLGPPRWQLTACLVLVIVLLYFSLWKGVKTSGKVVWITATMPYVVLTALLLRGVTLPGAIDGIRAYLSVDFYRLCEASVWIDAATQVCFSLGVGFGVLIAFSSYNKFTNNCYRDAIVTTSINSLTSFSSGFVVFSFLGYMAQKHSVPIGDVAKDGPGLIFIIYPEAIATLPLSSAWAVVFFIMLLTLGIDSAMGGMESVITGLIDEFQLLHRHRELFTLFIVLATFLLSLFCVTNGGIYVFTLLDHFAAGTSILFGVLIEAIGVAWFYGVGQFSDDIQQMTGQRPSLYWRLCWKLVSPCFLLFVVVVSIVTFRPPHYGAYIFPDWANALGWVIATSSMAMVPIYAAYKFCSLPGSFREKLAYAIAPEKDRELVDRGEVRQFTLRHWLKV
Sequence of Dual specificity tyrosine-phosphorylation-regulated kinase 2 (Q92630 whole entry): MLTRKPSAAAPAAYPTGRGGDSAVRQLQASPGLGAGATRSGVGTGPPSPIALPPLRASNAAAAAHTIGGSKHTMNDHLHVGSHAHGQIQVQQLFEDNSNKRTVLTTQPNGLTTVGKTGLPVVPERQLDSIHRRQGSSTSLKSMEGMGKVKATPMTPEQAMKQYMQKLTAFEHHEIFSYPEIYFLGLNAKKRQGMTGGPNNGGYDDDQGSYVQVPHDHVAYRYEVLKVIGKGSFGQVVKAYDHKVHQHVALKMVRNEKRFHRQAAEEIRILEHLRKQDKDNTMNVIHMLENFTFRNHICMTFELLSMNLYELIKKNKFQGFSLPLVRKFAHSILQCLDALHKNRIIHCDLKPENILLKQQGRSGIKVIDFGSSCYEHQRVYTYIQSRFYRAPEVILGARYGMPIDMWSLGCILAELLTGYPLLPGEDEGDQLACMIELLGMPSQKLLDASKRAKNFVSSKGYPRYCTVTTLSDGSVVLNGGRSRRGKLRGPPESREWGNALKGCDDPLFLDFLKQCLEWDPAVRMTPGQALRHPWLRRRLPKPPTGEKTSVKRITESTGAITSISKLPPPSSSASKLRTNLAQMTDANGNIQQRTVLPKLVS
Sequence of Kappa-type opioid receptor (P41145 whole entry): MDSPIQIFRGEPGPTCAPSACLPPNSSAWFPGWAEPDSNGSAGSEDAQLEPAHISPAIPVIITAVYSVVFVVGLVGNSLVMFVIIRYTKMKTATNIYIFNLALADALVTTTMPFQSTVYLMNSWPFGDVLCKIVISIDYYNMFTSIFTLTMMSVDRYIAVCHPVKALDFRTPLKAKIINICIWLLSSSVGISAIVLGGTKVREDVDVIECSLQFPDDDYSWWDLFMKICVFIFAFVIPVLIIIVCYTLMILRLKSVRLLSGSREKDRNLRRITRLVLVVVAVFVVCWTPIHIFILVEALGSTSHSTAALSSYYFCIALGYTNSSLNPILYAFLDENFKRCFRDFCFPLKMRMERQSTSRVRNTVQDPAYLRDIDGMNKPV
Sequence of Protein arginine N-methyltransferase 6 (Q96LA8 whole entry, looked up): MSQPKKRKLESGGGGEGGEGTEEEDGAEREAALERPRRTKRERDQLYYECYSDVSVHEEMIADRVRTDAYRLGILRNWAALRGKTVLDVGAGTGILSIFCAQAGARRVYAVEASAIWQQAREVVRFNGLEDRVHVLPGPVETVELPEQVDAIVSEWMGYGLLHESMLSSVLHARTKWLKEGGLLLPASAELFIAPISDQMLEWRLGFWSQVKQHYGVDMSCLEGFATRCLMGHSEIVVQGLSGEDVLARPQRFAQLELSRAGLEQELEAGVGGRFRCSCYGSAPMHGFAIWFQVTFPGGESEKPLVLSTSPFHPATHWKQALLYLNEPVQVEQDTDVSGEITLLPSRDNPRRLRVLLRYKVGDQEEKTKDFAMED
Sequence of Sigma intracellular receptor 2 (Q5BJF2 whole entry): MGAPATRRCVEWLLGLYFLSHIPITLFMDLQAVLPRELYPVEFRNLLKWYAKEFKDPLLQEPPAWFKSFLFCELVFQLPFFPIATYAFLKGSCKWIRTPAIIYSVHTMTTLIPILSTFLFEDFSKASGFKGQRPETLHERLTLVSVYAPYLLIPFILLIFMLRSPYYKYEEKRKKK
Sequence of Sigma non-opioid intracellular receptor 1 (Q99720 whole entry): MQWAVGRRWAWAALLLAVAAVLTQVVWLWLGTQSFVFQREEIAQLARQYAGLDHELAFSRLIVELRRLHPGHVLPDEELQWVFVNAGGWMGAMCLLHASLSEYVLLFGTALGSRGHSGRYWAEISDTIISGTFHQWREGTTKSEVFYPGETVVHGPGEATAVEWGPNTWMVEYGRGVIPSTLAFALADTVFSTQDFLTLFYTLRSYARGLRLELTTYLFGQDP

O=C1c2ccc(Nc3ccc(F)cc3F)cc2CCc2ccc(OC[C@H](O)CO)cc21 [Skepinone-L]
pKi [1]: < 5.00 | % of control [2]: 37% | % of control [3]: 53%

Cn1cc(-c2ccc3occ(-c4ccccc4-c4ccccc4)c3n2)cn1
pKi [4]: < 5.00 | pKi [5]: < 5.00 | pKi [6]: < 5.00 | pKi [7]: < 5.00

CCC(=O)N1CCOc2c(cc(-c3ccc(OC)c(OC)c3)cc2OC[C@H]2CCCN(C)C2)C1
dTm [8]: 8.6 K | dTm [9]: 1.35 K | dTm [10]: 2.09 K | dTm [11]: 1.55 K | % of inhibition [12]: 67% | dTm (CREB-binding protein [13]): 7.8 K | pKd (CREB-binding protein [14]): 6.77 | dTm [15]: 0.58 K | pKd [16]: < 4.70 | % of inhibition [17]: 89%

C[C@H]1Oc2cc(cnc2N)-c2c(nn(C)c2C#N)CN(C)C(=O)c2ccc(F)cc21 [LORLATINIB]
pKi (Activated CDC42 kinase 1): 7.77 | pKi (Focal adhesion kinase 1): 7.77 | pKi [18]: 8.22 | pKi [19]: 7.28 | pKi [20]: 6.28 | pKi [21]: 6.50 | pKi [22]: 7.25 | pKi [23]: 7.62 | pKi [24]: 7.34 | pKi [25]: 8.57 | pKi [26]: 7.85 | pKi [27]: 8.48

COc1cc(C#N)ccc1S(=O)(=O)Nc1ccc2c(c1)cc(C)c(=O)n2C
mean % of control [28]: 61% | pKd [29]: 5.41 | mean % of control [30]: 80% | mean % of control [31]: 62%

CNCCN1CCC(OCc2ccccc2)CC1
pKi [32]: 7.27 | dTm [33]: 11.3 K | % activity remaining [34]: 78% | inhibition [35]: 31% | pKi [36]: 6.24 | dTm [37]: 3.3 K
